For 84 compounds, melting point results are on record in a melting point compilation (Tetko et al.; mined from patent text by program, amines drawn as free bases though some values may be those of a salt).

Structures are written as SMILES.

Take `NC(=O)N1C(=O)C(=C(OC(=O)c2ccc(C(=O)OCc3ccccc3)cc2)c2cccs2)c2cc(F)c(Cl)cc21`: the melting point lay within 212 to 218 °C. For `Clc1cc(N2CCC3(CC2)OCCO3)nc(N2CCC3(CC2)OCCO3)n1` the value was 130 to 131 °C; for `O=C(c1[nH]c2ccccc2c1Sc1ccccn1)N1CCCC1`, 211 to 213 °C. For `Cc1[nH]cnc1CSCCNC(=O)NCCCCN(C)CCC(c1ccc(Cl)cc1)c1ccccn1` (centres undefined) the value was 97 to 98 °C.

Consider `Cc1ccc(=O)n(C2c3cc(C#N)ccc3OC(C)(C)C2O)n1` (centres undefined), for which the melting point is over 257 °C.

For `O=C(O)C(O)P(=O)(O)O` (centres undefined), the melting point lay within 153 to 154 °C.

In turn, `O=C(CCCCl)NC1c2ccccc2CS(=O)(=O)c2ccccc21` (centres undefined) registered a melting point of 215 to 227 °C. For `O=C(OCc1cncs1)Oc1ccc([N+](=O)[O-])cc1` the value was 62 to 64 °C; for `CN1C(=O)[C@@H](CN2CCCCC2)C[C@H]1c1ccc(Br)s1`, 69 to 71 °C. For `CC(C)(C)NC(=O)[C@@H]1CC(Cl)CN1C(=O)C(O)[C@H](Cc1ccccc1)NC(=O)[C@H](CC(N)=O)NC(=O)COc1ccc(NC(=O)OCc2ccccc2)cc1` (some centres undefined) the value was 113 to 115 °C. For `Cc1cc(C2=CCCCC2)c(OP2OCC(C)(C)CO2)c(C(C)(C)C)c1` the value was 97 to 102 °C; for `CCS(=O)(=O)Nc1cccc(SCc2ccccc2)n1`, 87 to 92 °C; for `Cn1c(C(F)(F)F)ccc(-c2c(F)cc(Cl)c3oc(CO)cc23)c1=O`, 145 to 147 °C. `Cn1c2cc(C(O)CO)ccc2c2c3c(c(-c4ccccc4Cl)cc21)C(=O)NC3=O` (centres undefined) displayed a melting point of 252 to 255 °C. `CN1c2ccccc2S(=O)(=O)c2cc(C=Cc3ccc(-c4ccc(C=Cc5ccc6c(c5)S(=O)(=O)c5ccccc5N6C)cc4)cc3)ccc21` had a melting point of 360 °C.

For `CCCCCCCCCCS(=O)(=O)NC(=O)c1cnc(C(=O)NCC(=O)OCC)c(OC)c1`, the melting point was found to be 70 °C.

As to `CON=C(C(C)=O)C(=O)N(C)C`, the melting point fell in the range of 73.5 to 75 °C.

In the case of `CCOC(=O)C1=C(c2ccc(-n3c(C)nc4cnccc43)nc2)NC(C)=C(C(=O)Nc2ccccn2)C1c1ccccc1Cl` (centres undefined), the melting point lay within 242 to 243 °C. For `COc1cc(C(C)C)c(Oc2cnc(N)nc2N)cc1N1CCN(S(C)(=O)=O)CC1` the value was 115 to 117 °C. For `CC1(C)CN(C2CC3(C)C(CCC4C3CCC3(C)C(C(=O)CSC#N)CCC43)CC2O)CCO1` (centres undefined) the value was 166 °C; for `CCN(CC)c1ccc(S(=O)(=O)N2CCCC2=S)cc1`, 183 to 184 °C. On to `COc1ccccc1S(=O)(=O)NC(=O)c1ccc(C(=O)O)nc1`, for which the melting point lay in the range of 234 to 236 °C. For `O=C(Nc1cccc(S(=O)(=O)N2CCOCC2)c1)c1cnn2c(C(F)(F)F)cc(-c3ccc(Cl)cc3)nc12` the value was 144 °C. For `CCOCc1nc2c(N)nc3cccnc3c2n1CC1(O)CCOCC1` the value was 166 to 167 °C. For `N#CC1(c2ccc(OCc3ccc(F)cc3)c(OC3CCCC3)c2)CCC(=NO)CC1` (centres undefined) the value was 55 to 57 °C; for `Cc1cc(Oc2ccc(-c3ccn(CC4CC4)c(=O)c3C(F)(F)F)cc2F)cc(C)n1`, 162 °C; for `C#CCOCC1=C(C(=O)OCC)C(c2cccc(Cl)c2Cl)C(C(=O)OC)=C(C)N1` (centres undefined), 104 to 105 °C. `NC(=O)CNC(=O)c1cccc(-c2cccc3c(F)c(Cc4cccc(C(F)(F)F)c4)sc23)c1` displayed a melting point of 127 to 128 °C. For `CS(=O)c1cccc2c3c(n(Cc4ccc(Cl)cc4)c12)C(CC(=O)O)CCC3` (centres undefined) the value was 119 to 120 °C; for `CNc1c(C(=O)OC)cccc1[N+](=O)[O-]`, 138 to 140 °C; for `CS(=O)c1cc(=O)c2occc2s1` (centres undefined), 230 to 232 °C. For `CS(=O)c1ccc(OCc2ccccc2)c(CCCc2ccc(C(=O)NCCO)cc2)c1` (centres undefined) the value was 105 to 108 °C. Take `Nc1c(F)c(N2CCC(C(N)c3ccco3)C2)c(F)c2c1c(=O)c(C(=O)O)cn2C1CC1F` (centres undefined): the melting point lay in the range of 188 to 189 °C. For `O=C1c2c(O)ccc(O)c2C(=O)c2c(NCCN(CCO)CCO)ccc(NCCN(CCO)CCO)c21` the value was 134 to 136 °C. Compound `O=S(=O)(Nc1ccc2c(OCc3coc(-c4ccc(Cl)cc4)n3)cccc2c1)C(F)(F)F` yielded a melting point of 198 to 200 °C. Regarding `Cc1nnc2n1-c1ccccc1C(c1ccccc1)=NC2NC(=O)Nc1ccc(Cl)cc1` (centres undefined), the melting point lay in the range of 292 to 294 °C. For `CN1CCC(OC2c3ccccc3CCn3c2nc(-c2ccccc2)c3CO)CC1` (centres undefined) the value was 120 °C; for `COc1ccc2c(c1OC)C(=O)c1c-2c(Cl)nc2ccc(Cl)cc12`, 149 to 151 °C.

For the compound `COc1cc(OCc2ccccn2)ccc1/C=C/c1cc(/C=C/c2ccc3ccn(Cc4ccccc4)c3c2)n[nH]1`, the melting point fell in the range of 89 to 93 °C. For `O=Cc1cccc(OCC(O)CN2C(=O)c3ccccc3C2=O)c1` (centres undefined) the value was 122 to 126 °C; for `Nc1ccc(CCN2CCN(c3ccc(N)cc3)CC2)cc1`, 156 to 158 °C. For `O=C(O)COc1c(Br)cc(C(=O)c2c(Cc3ccccc3)oc3ccccc23)cc1Br` the value was 165 to 167 °C. In turn, `CC1=C(C(=O)c2ccc(C#N)cc2)C(=O)C2C=CC=CC2C1=O` (centres undefined) registered a melting point of 185 to 186 °C. For `C=CCc1ccc(C[C@H](NC(=O)OC(C)(C)C)C(=O)OC)cc1` the value was 56 to 59 °C; for `O=c1c2ccccc2c(-c2ccccc2)cn1CCCN1CCCCC1`, 118 °C; for `CC(=O)OCC(=O)C1(O)CCC2C3CCC4=CC(=O)CCC4(C)C3=CCC21C` (centres undefined), 234 °C. Turning to `CCCP(=O)(CCC)Cc1ccc(NC(=O)/C=C/c2cccc(-c3ccc(C)cc3)c2)cc1`, the melting point was in the range of 225 to 227 °C.

Regarding `COc1cc(OC2OC(CO)C(O)C(O)C2O)ccc1C=Cc1cc(C=Cc2ccc3cc[nH]c3c2)n[nH]1` (centres undefined), the melting point was in the range of 194 to 199 °C. `CCOC(=O)CNC(=O)CN1CCCC1=O` showed a melting point of 63 to 64 °C. For `CCCCCOc1ccc2cc(CCC(N)(CO)CO)ccc2c1` the value was 106 to 109 °C; for `CCCCCCCCCCCCCCCCCCN(CCCCCCCCCCCCCCCCCC)C(=O)N1CCN(C)CC1`, 46 to 47 °C. For `CCCc1c(OCCCCCC(=O)NCCc2cccnc2)ccc(C(C)=O)c1O` the value was 76 to 78 °C; for `CCCCNC1NC(=O)N(c2cccc(C(F)(F)F)c2)C(=O)N1`, 245 to 247 °C; for `COCCN1C(=O)C(C)(C)C(=O)N(C)c2cc(CN(CCn3cc(C)c4occc4c3=O)Cc3cccnc3C)ccc21`, 127 to 130 °C. `CS(=O)(=O)c1ccc(-c2cnn(CC(F)(F)F)c(=O)c2OC2CCc3ccccc32)cc1` (centres undefined): the melting point was 113 to 114 °C. For `Cc1ccc(C(=O)c2ccc(Cc3ccc(N)cn3)n2C)cc1` the value was 104 to 107 °C. For `CCOC(=O)c1ccccc1C(=O)c1ccc2c(c1)C(C)(C)C(C)C2(C)C` (centres undefined) the value was 56 to 57 °C; for `Cc1cc(C(O)C(Cl)(Cl)Cl)n(C)c1` (centres undefined), 55 to 57 °C; for `OC(c1ccc(F)cc1)(c1ccc(F)cc1)c1nccn1Cc1ccccc1`, 176 to 177 °C. As for `CC(C)n1cnc2c(NCc3ccncc3)nc(F)nc21`, the melting point lay in the range of 170 to 173 °C. For `CN1CCN(c2nc3sc4c(NCc5ccccn5)ncnc4c3c3c2CCC(C)(C)C3)CC1` the value was 200 to 202 °C; for `O=C(O)c1cc(-n2c(-c3cccc(C(F)(F)F)c3)cc3c2CCCC3)ccc1O`, 215 to 225 °C; for `CN1CC(CCN2CCN(c3cccc(F)c3)CC2)OC1=O` (centres undefined), 92 to 93 °C. `CC(C)(N)CNC(=O)CNC(=O)c1ccccc1` showed a melting point of 80 to 84 °C. For `CNC(=O)[C@@H](N[C@@H](C)c1ccccc1)C(C)(C)C` the value was 107 to 108 °C; for `CCn1c(=O)[nH]c2c3ccccc3ccc21`, 240 to 242 °C. For `COCc1cc(Cl)cc(C(=O)c2nc(OC)cc(OC)n2)c1[N+](=O)[O-]` the value was 130 to 131 °C; for `Cc1nc(N2CCC(NCc3ccc(F)cc3)C2=O)sc1C(=O)NCc1ccc(F)cc1` (centres undefined), 123 to 124 °C. Compound `Cc1ccc(-c2[nH]nc3c2Cc2ccccc2-3)cc1` displayed a melting point of 250 to 252 °C. For `CS(=O)(=O)c1ccc(-c2cc(=O)n(CC3CCCC3)nc2-c2ccc(F)cc2)cc1` the value was 76 to 77 °C; for `CCCC(O)c1cc(C(=O)OC)c(NC(C)=O)cc1C(F)(F)F` (centres undefined), 97 to 101 °C; for `CC(C)NC(=O)c1n[nH]cc1NC(=O)c1ccccn1`, 254 to 255 °C. In turn, `O=C(Nc1ccc(-n2nc(-c3ccoc3)cc2OC(F)F)cc1)c1ccncc1F` had a melting point of 172 to 174 °C. For `COc1ccc([N+](=O)[O-])c(N(C)C(=O)OC(C)(C)C)c1` the value was 122 to 124 °C; for `CC(Oc1ccc([N+](=O)[O-])cc1)C(=O)OCCOC(=O)C(C)Oc1ccc([N+](=O)[O-])cc1` (centres undefined), 118 to 120 °C; for `CCOC(=O)C1(c2ccccc2)CCN(C/C=C/C(C#N)(c2ccccc2)c2ccccc2)CC1`, 100 to 102 °C. For `CCN(CC)CCC(=O)C1Nc2cnccc2N(C)n2cccc21` (centres undefined) the value was 170 to 172 °C; for `Cc1cn(C(C)(C)C(=O)N(C)C)nc1-c1ccccc1Br`, 192 to 194 °C; for `C=C(C)c1ccc(OCCO)cc1`, 78 to 80 °C.

`CC(C)(C)C(=O)O[C@H]1[C@H](N2CCCC2)c2cc(C#N)ccc2OC1(C)C` (relative stereo) yielded a melting point of 109 to 110 °C. For `CCOC(=O)C1(C)C(=O)Nc2cc3[nH]c(-c4ccccc4)nc3cc21` (centres undefined) the value was 178 to 182 °C. For `O=C1CCCC2=C1C(c1cccc([N+](=O)[O-])c1)C1=C(CCCC1)N2` (centres undefined) the value was 218 to 221 °C; for `CCCCC(=O)c1c(CN2CCOCC2)nc2cc(OC)c(OC)cc2c1-c1ccc(OC)c(OC)c1`, 137 to 138 °C. For `Cc1cccc(NCCNc2cccc(C)c2C)c1C` the value was 130 to 133 °C.

By melting point is commonly meant the temperature, or range, at which the solid turns liquid.
